From patent EP1984353B1, “AURORA KINASE MODULATORS AND METHOD OF USE” (Amgen, Inc, priority 2006, dated 2007) come the findings set out here.

Read-outs that look alike come from different tables or passages of the source. Where only a bound is given, the exact number is not on record here.

For assay [1], the target named is T1, AuroraB (Homo sapiens, UniProt Q96GD4).
T1 construct: 20 µL of AuroraB FL His; His
The experiment in a line: AuroraB Homogeneous Time Resolved Fluorescent (HTRF) kinase assay. The format is biochemical. The settings on record: average, read-out: AurB_ _IC50_IP (Avg). Put shortly:
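Full-length His-tagged AuroraB (400 pM) phosphorylates 0.1 µM biotinylated Histone H3 with 23 µM ATP (Km(app)) in HEPES pH 7.5 with Mg/Mn, about 90 min. EDTA-quenched; Eu-anti-phosphoHistoneH3 and SA-APC HTRF, 655/615 nm ratio as phosphorylation.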

For assay [2], the target named is T2, AuroraA-TPX2 (Homo sapiens, UniProt O14965).
T2 construct: 20 µL of AuroraA-TPX2 KD GST; GST
T2 sequence (O14965 133-383 limits assumed): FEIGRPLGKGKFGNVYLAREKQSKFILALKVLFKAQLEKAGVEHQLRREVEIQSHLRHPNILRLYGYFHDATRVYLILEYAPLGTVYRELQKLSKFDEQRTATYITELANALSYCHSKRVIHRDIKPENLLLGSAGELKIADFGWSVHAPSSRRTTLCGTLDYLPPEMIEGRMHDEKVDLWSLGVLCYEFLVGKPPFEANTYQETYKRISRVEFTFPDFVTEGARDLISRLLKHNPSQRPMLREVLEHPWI
T2 sequence (Q9ULW0 1-43 partner limits assumed): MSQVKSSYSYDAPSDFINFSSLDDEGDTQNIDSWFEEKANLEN
The assay can be described thus: AuroraA-TPX2 Homogeneous Time Resolved Fluorescent (HTRF) kinase assay. It is filed as biochemical. The settings on record: average, read-out: AurA/TP X2_ IC50_IP (Avg). A digest of the protocol:
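Aurora-A/TPX2 phosphorylates biotinylated PLK peptide (about 1 µM) with ATP for about 120 min in 60 mM HEPES pH 7.5, 10 mM MgCl2, 2 mM DTT. EDTA quench, overnight equilibration with Eu-anti-phosphoPLK antibody and SA-APC; HTRF read at 615/655 nm after 320 nm excitation.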
On the technique in general: In TR-FRET formats the signal depends on donor and acceptor labels being close together.

The mark [3] stands for this setting: given as numbers, unit inferred.

T1 sequence (Q96GD4 whole entry): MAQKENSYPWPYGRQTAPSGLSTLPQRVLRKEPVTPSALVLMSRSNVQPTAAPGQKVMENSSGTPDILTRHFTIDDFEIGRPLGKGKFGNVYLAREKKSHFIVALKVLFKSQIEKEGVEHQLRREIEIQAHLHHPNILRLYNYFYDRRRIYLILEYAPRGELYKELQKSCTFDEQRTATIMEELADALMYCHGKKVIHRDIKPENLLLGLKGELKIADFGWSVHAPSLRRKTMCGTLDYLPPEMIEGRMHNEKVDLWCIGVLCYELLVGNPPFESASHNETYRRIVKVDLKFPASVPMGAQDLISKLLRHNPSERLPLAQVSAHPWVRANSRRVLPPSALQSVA

With `Nc1nccc(-c2cccnc2Oc2ccc(Nc3nnc(-c4ccccc4OC(F)(F)F)c4ccccc34)cc2)n1` [compound 382, N-(4-((3-(2-amino-4-pyrimidinyl)-2-pyridinyl)oxy)phenyl)-4-(2-((trifluoromethyl)oxy)phenyl)-1-phthalazinamine], the values for the IC50 in assay [1] (given as class symbols) and in assay [2] (given as class symbols) were no more than 100 nM and 100 to 500 nM, respectively.
`Nc1nccc(-c2cccnc2Oc2ccc(Nc3nnc(-c4ccccc4OC(F)(F)F)c4ccccc34)cn2)n1` [compound 383, N-(6-((3-(2-amino-4-pyrimidinyl)-2-pyridinyl)oxy)-3-pyridinyl)-4-(2-((trifluoromethyl)oxy)phenyl)-1-phthalazinamine]: the IC50 in assay [1] (given as class symbols) was no more than 100 nM; in assay [2] (given as class symbols), 500 to 2500 nM.
As to `Nc1nccc(-c2cccnc2Oc2ccc(Nc3nnc(-c4ccccc4CO)c4ccccc34)cc2)n1` [compound 384, (2-(4-((4-((3-(2-amino-4-pyrimidinyl)-2-pyridinyl)oxy)phenyl)amino)-1-phthalazinyl)phenyl)methanol], the IC50 in assay [1] (given as class symbols) and in assay [2] (given as class symbols) was no more than 100 nM in each case.
For the compound `Nc1nccc(-c2cccnc2Oc2ccc(Nc3nnc(-c4ccccc4CO)c4ccccc34)cn2)n1` [compound 385, (2-(4-((6-((3-(2-amino-4-pyrimidinyl)-2-pyridinyl)oxy)-3-pyridinyl)amino)-1-phthalazinyl)phenyl)methanol], the values for the IC50 in assay [1] (given as class symbols) and in assay [2] (given as class symbols) were no more than 100 nM and 100 to 500 nM, respectively.
On the same counts, the results for `Nc1nccc(-c2cccnc2Oc2ccc(Nc3nnc(-c4cc(F)ccc4O)c4ccccc34)cc2)n1` [compound 386, 2-(4-((4-((3-(2-amino-4-pyrimidinyl)-2-pyridinyl)oxy)phenyl)amino)-1-phthalazinyl)-4-fluorophenol] are no more than 100 nM and no more than 100 nM.
On the same counts, the results for `Nc1nccc(-c2cccnc2Oc2ccc(Nc3nnc(-c4cc(F)ccc4O)c4ccccc34)cn2)n1` [compound 387, 2-(4-((6-((3-(2-amino-4-pyrimidinyl)-2-pyridinyl)oxy)-3-pyridinyl)amino)-1-phthalazinyl)-4-fluorophenol] are no more than 100 nM and no more than 100 nM.
The corresponding values for `CN(C)CCCOc1cccc(-c2nnc(Nc3ccc(Oc4ncccc4-c4ccnc(N)n4)nc3)c3ccccc23)c1` [compound 388, N-(6-((3-(2-amino-4-pyrimidinyl)-2-pyridinyl)oxy)-3-pyridinyl)4-(3-((3-(dimethylamino)propyl)oxy)phenyl)-1-phthalazinamine] are no more than 100 nM and 100 to 500 nM.
As to `CN1CCN(CCCNc2nccc(-c3cccnc3Oc3ccc(Nc4nnc(-c5ccccc5)c5ccccc45)cn3)n2)CC1` [compound 389, N-(6-((3-(2-((3-(4-methyl-1-piperazinyl)propyl)amino)-4-pyrimidinyl)-2-pyridinyl)oxy)-3-pyridinyl)-4-phenyl-1-phthalazinamine], the IC50 in assay [1] (given as class symbols) and in assay [2] (given as class symbols) was no more than 100 nM each time.
For `c1ccc(-c2nnc(Nc3ccc(Oc4ncccc4-c4ccnc(NCCCN5CCNCC5)n4)nc3)c3ccccc23)cc1` [compound 390, 4-phenyl-N-(6-((3-(2-((3-(1-piperazinyl)propyl)amino)-4-pyrimidinyl)-2-pyridinyl)oxy)-3-pyridinyl)-1-phthalazinamine], the IC50 in assay [1] (given as class symbols) and in assay [2] (given as class symbols) was no more than 100 nM each time.
Turning to `Nc1nccc(-c2cccnc2Oc2ccc(Nc3nnc(-c4ccccc4OP(=O)(O)O)c4ccccc34)cn2)n1` [compound 391, 2-(4-((6-((3-(2-amino-4-pyrimidinyl)-2-pyridinyl)oxy)-3-pyridinyl)amino)-1-phthalazinyl)phenyl dihydrogen phosphate], the IC50 in assay [1] (setting [3]) was 641 nM; in assay [2] (setting [3]), 1600 nM.
As for `Nc1nccc(-c2cccnc2Oc2ccc(Nc3nnc(-c4cccc(OP(=O)(O)O)c4)c4ccccc34)cn2)n1` [compound 392, 3-(4-((6-((3-(2-amino-4-pyrimidinyl)-2-pyridinyl)oxy)-3-pyridinyl)amino)-1-phthalazinyl)phenyl dihydrogen phosphate], the IC50 in assay [1] (given as class symbols) and in assay [2] (given as class symbols) was 500 to 2500 nM each time.
In the case of `Nc1nccc(-c2cccnc2Oc2ccc(Nc3nnc(N4CCNCC4)c4ccccc34)cc2)n1` [compound 393, N-(4-((3-(2-amino-4-pyrimidinyl)-2-pyridinyl)oxy)phenyl)-4-(1-piperazinyl)-1-phthalazinamine], the results for the IC50 in assay [1] (given as class symbols) and in assay [2] (given as class symbols) were 100 to 500 nM and 500 to 2500 nM, respectively.
On the same counts, the results for `Nc1nccc(-c2cccnc2Oc2ccc(Nc3nnc(N4CCN5CCCC5C4)c4ccccc34)cc2)n1` (stereo not drawn) [compound 394, N-(4-((3-(2-amino-4-pyrimidinyl)-2-pyridinyl)oxy)phenyl)-4-(hexahydropyrrolo[1,2-a]pyrazin-2(1H)-yl)-1-phthalazinamine] are no more than 100 nM and no more than 100 nM.
The corresponding values for `CC1CN(c2nnc(Nc3ccc(Oc4ncccc4-c4ccnc(N)n4)cc3)c3ccccc23)CCN1C` (stereo not drawn) [compound 395, N-(4-((3-(2-amino-4-pyrimidinyl)-2-pyridinyl)oxy)phenyl)-4-(3,4-dimethyl-1-piperazinyl)-1-phthalazinamine] are no more than 100 nM and no more than 100 nM.
Take `Cc1ccc(-c2nnc(Nc3ccc(Oc4ncccc4-c4ccnc(N)n4)cc3)c3ccccc23)nc1` [compound 396, N-(4-((3-(2-amino-4-pyrimidinyl)-2-pyridinyl)oxy)phenyl)-4-(5-methyl-2-pyridinyl)-1-phthalazinamine]: the IC50 came to 0.8 nM in assay [1] (setting [3]) and 4.7 nM in assay [2] (setting [3]).
Take `Nc1nccc(-c2cccnc2Oc2ccc(Nc3nnc(N4CCN5CCCC5C4)c4ccccc34)cn2)n1` (stereo not drawn) [compound 397, N-(6-((3-(2-amino-4-pyrimidinyl)-2-pyridinyl)oxy)-3-pyridinyl)-4-(hexahydropyrrolo[1,2-a]pyrazin-2(1H)-yl)-1-phthalazinamine]: the IC50 in assay [1] (given as class symbols) and in assay [2] (given as class symbols) was no more than 100 nM in each case.
On to `C[C@@H]1CN(c2nnc(Nc3ccc(Oc4ncccc4-c4ccnc(N)n4)cc3)c3ccccc23)CCN1` [compound 399, N-(4-((3-(2-amino-4-pyrimidinyl)-2-pyridinyl)oxy)phenyl)-4-((3R)-3-methyl-1-piperazinyl)-1-phthalazinamine], for which the figures for the IC50 in assay [1] (given as class symbols) and in assay [2] (given as class symbols) were 100 to 500 nM and 500 to 2500 nM, respectively.
The corresponding values for `Fc1cnc(NCCCN2CCNCC2)nc1-c1cccnc1Oc1ccc(Nc2nnc(-c3ccccc3)c3ccccc23)cc1` [compound 400, N-(4-((3-(5-fluoro-2-((3-(1-piperazinyl)propyl)amino)-4-pyrimidinyl)-2-pyridinyl)oxy)phenyl)-4-phenyl-1-phthalazinamine] are no more than 100 nM and 100 to 500 nM.
With `Nc1nccc(-c2cccnc2Oc2ccc(Nc3nnc(N4CCN5CCC[C@H]5C4)c4ccccc34)cc2)n1` [compound 401, N-(4-((3-(2-amino-4-pyrimidinyl)-2-pyridinyl)oxy)phenyl)-4-((8aS)-hexahydropyrrolo[1,2-a]pyrazin-2(1H)-yl)-1-phthalazinamine], the IC50 in assay [1] (given as class symbols) and in assay [2] (given as class symbols) was no more than 100 nM each time.
Consider `Nc1nccc(-c2cccnc2Oc2ccc(Nc3nnc(N4CCN5CCC[C@H]5C4)c4ccccc34)cn2)n1` [compound 402, N-(6-((3-(2-amino-4-pyrimidinyl)-2-pyridinyl)oxy)-3-pyridinyl)-4-((8aS)-hexahydropyrrolo[1,2-a]pyrazin-2(1H)-yl)-1-phthalazinamine], for which the IC50 in assay [1] (given as class symbols) and in assay [2] (given as class symbols) was no more than 100 nM in each case.
`Fc1cnc(NCCCN2CCCCC2)nc1-c1cccnc1Oc1ccc(Nc2nnc(-c3ccccc3)c3ccccc23)cc1` [compound 403, N-(4-((3-(5-fluoro-2-((3-(1-piperidinyl)propyl)amino)-4-pyrimidinyl)-2-pyridinyl)oxy)phenyl)-4-phenyl-1-phthalazinamine]: the IC50 in assay [1] (given as class symbols) and in assay [2] (given as class symbols) was no more than 100 nM throughout.
Take `Cc1ccnc(-c2nnc(Nc3ccc(Oc4ncccc4-c4ccnc(N)n4)cc3)c3ccccc23)c1` [compound 404, N-(4-((3-(2-amino-4-pyrimidinyl)-2-pyridinyl)oxy)phenyl)-4-(4-methyl-2-pyridinyl)-1-phthalazinamine]: the IC50 in assay [1] (given as class symbols) is no more than 100 nM; in assay [2] (given as class symbols), 100 to 500 nM.
On to `Cc1ccnc(-c2nnc(Nc3ccc(Oc4ncccc4-c4ccnc(N)n4)nc3)c3ccccc23)c1` [compound 405, N-(6-((3-(2-amino-4-pyrimidinyl)-2-pyridinyl)oxy)-3-pyridinyl)-4-(4-methyl-2-pyridinyl)-1-phthalazinamine], for which the IC50 is no more than 100 nM in assay [1] (given as class symbols) and 100 to 500 nM in assay [2] (given as class symbols).
On the same counts, the results for `Nc1nccc(-c2cccnc2Oc2ccc(Nc3nnc(N4CCN5CCCCC5C4)c4ccccc34)cc2)n1` (stereo not drawn) [compound 406, N-(4-((3-(2-amino-4-pyrimidinyl)-2-pyridinyl)oxy)phenyl)-4-(octahydro-2H-pyrido[1,2-a]pyrazin-2-yl)-1-phthalazinamine] are no more than 100 nM and no more than 100 nM.
